Experimental data taken from PMC8648123, “An atypical EhGEF regulates phagocytosis in Entamoeba histolytica through EhRho1” (PLoS Pathogens, 2021).

B1: HA-tagged EhGEF (full length wild type) (natural protein)
chain: MSEELKISVESLRPALFEGWGKKQGGSVKTWKKRWFVLKDNRLWYFASKTAEEAKGFIELPPGTETKDVSQNKKFMFSINSRNTKGSRVFYIVTENSVDHATFFDAVRKVLNKSSPSSVPAAQSTTPVNVPKAENQFTLQGNNSSTGLSTSTQPVTSTIPPMADAVNIPNSLQPKCDGRKNINKIKAKISWLQVEGENVVEFWKYWMDSTPQSDALEVGQSIQFMLVVSGNTEKLSWRVFGPQGALIQNMVDFFWNVGAPDEEIDHLNNLGCQINPSEIGSWIDMSVMNGMDGGWFFKGDLVCDVIRDTADKCEYAERLITWAKEHGLNYLCQMGRDMGATPPRQSEFRFKLDGVISSRMEKVHSAFTTFGFPPIPVNIVEILTNLPPVYTYFYLCVIVSSEGFVKISILVPAPKQDVVDAFLFAMSDVKDTHIALHKDITNTLGNTPLFVEYCYLNPGYGYEVYKEGADVLVHYNLGSESR

What was measured:
EhGEF = molecular target: T1, EhGEF (Entamoeba histolytica, UniProt C4LYE4); assay: tryptophan fluorescence quenching titration; format: binding
T1 construct: gene EHI_008090; recombinant protein lacking PH domain (EhGEFΔPH), putative GEF domain

[1] = molecular target: GST-tagged EhRho1 (wild type) (Entamoeba histolytica)

Molecule | Kd (EhGEF) [µM] | MANT-GDP dissociation from recombinant EhRho1 in presence of HA-EhGEF, compared with HsRhoA and EhRab1a [1] [fold]
Nc1nc2c(ncn2[C@@H]2O[C@H](COP(=O)(O)OP(=O)(O)OP(=O)(O)O)[C@@H](O)[C@H]2O)c(=O)[nH]1 [GTP] | 298 | 
B1 |  | 2
